From US20230167073A1 (Teijin Pharma Limited, priority 2020, published 2023)

Molecular target: T1, Human TRPC6 (Homo sapiens, UniProt Q9Y210)
T1 construct: expressed in transfected cells
T1 sequence (Q9Y210 1-931): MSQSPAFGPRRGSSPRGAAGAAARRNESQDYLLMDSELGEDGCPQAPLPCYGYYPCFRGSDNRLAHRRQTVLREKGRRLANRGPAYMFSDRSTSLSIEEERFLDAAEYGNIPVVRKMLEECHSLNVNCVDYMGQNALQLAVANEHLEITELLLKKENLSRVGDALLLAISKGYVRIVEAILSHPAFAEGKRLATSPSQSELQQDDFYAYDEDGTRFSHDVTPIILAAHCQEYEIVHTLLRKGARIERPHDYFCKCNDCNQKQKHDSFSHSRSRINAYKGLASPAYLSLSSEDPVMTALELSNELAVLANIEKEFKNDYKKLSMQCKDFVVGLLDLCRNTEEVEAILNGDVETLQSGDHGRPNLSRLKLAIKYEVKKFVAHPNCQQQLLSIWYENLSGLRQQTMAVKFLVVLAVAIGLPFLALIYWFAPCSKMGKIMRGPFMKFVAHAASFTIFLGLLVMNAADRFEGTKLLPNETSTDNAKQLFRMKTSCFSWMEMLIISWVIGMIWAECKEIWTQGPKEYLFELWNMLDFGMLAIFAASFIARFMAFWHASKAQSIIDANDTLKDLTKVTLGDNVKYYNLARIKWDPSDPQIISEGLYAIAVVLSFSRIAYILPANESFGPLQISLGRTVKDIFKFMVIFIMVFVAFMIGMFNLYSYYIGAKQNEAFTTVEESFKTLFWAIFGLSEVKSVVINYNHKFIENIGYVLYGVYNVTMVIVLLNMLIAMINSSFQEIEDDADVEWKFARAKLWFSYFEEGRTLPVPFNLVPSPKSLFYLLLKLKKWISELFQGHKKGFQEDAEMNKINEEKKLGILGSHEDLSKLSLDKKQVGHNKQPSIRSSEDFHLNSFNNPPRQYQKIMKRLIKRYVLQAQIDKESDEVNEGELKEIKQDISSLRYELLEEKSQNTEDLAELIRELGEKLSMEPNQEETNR
Assay: Evaluation of TRPC6 channel inhibitory activity (1), FLIPR Calcium 5 Assay Kit, OAG stimulation (Compound Nos. 1-1293)
Assay type: cell-based
Conditions: Human TRPC6 stably-expressing cells, OAG 30 μM, FLIPR Calcium 5 Assay Kit; read-out: Inhibitory activity (pIC50 class) (converted)
In short: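 Calcium influx read by FLIPR fluorescence in cells stably expressing human TRPC6, dye-loaded 30 min. Compounds preincubated 20 min, then OAG stimulation at 30 μM final. Inhibition fitted by four-parameter logistic regression to give pIC50, reported as +/++/+++ categories.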

Compared with `Cc1nn(C2CCCCC2)cc1Oc1cc(C#N)ccc1-c1ncc(CCN)cn1` [compound 864, 4-[5-(2-aminoethyl)pyrimidin-2-yl]-3-(1-cyclohexyl-3-methylpyrazol-4-yl)oxybenzonitrile], `Cc1nn(C2CCCCC2)cc1Oc1cc(C#N)ccc1-c1ncc(CN)cn1` [compound 865, 4-[5-(aminomethyl)pyrimidin-2-yl]-3-(1-cyclohexyl-3-methylpyrazol-4-yl)oxybenzonitrile] is higher in IC50: 0.01 to 1 µM for the first, over 1 µM for the second.

`Cn1nc(N2CC(F)(F)C(F)(F)C2)cc1Oc1cc(C#N)ccc1-c1ncc(CN)cn1` [compound 866, 4-[5-(aminomethyl)pyrimidin-2-yl]-3-[2-methyl-5-(3,3,4,4-tetrafluoropyrrolidin-1-yl)pyrazol-3-yl]oxybenzonitrile] and `Cn1nc(N2CC(F)(F)C(F)(F)C2)cc1Oc1cc(C#N)ccc1-c1ncc(CCN)cn1` [compound 877, 4-[5-(2-aminoethyl)pyrimidin-2-yl]-3-[2-methyl-5-(3,3,4,4-tetrafluoropyrrolidin-1-yl)pyrazol-3-yl]oxybenzonitrile] cannot be ordered by IC50: under 0.01 µM for the first, under 0.01 µM for the second.

First: COC(C)(C)CN(C)c1cc(Oc2cc(C#N)ccc2-c2ncc(CN)cn2)n(C)n1 [compound 867, 4-[5-(aminomethyl)pyrimidin-2-yl]-3-[5-[(2-methoxy-2-methylpropyl)-methylamino]-2-methylpyrazol-3-yl]oxybenzonitrile]
Second: COC(C)(C)CN(C)c1cc(Oc2cc(C#N)ccc2-c2ncc(CCN)cn2)n(C)n1 [compound 868, 4-[5-(2-aminoethyl)pyrimidin-2-yl]-3-[5-[(2-methoxy-2-methylpropyl)-methylamino]-2-methylpyrazol-3-yl]oxybenzonitrile]
The IC50 of the first is higher: over 1 µM for the first, 0.01 to 1 µM for the second.

Compared with `Cn1nc(C2CC2)cc1Oc1cc(C#N)ccc1-c1ccc(N2CC[C@@H](F)[C@H](N)C2)cn1` [compound 869, 4-[5-[(4R)-3-amino-4-fluoropiperidin-1-yl]pyridin-2-yl]-3-(5-cyclopropyl-2-methylpyrazol-3-yl)oxybenzonitrile], `Cn1nc(C2CC2)cc1Oc1cc(C#N)ccc1-c1ccc(CN)nn1` [compound 870, 4-[6-(aminomethyl)pyridazin-3-yl]-3-(5-cyclopropyl-2-methylpyrazol-3-yl)oxybenzonitrile] is lower in IC50: over 1 µM for the first, 0.01 to 1 µM for the second.

First: Cc1cc(Oc2cc(C#N)ccc2-c2ccc(CN)nn2)cc(N2CCOCC2)n1 [compound 871, 4-[6-(aminomethyl)pyridazin-3-yl]-3-(2-methyl-6-morpholin-4-ylpyridin-4-yl)oxybenzonitrile]
Second: Cc1cc(Oc2cc(C#N)ccc2-c2ncc([C@H](F)CN)cn2)cc(N2CCOCC2)n1 [compound 872, 4-[5-[(1S)-2-amino-1-fluoroethyl]pyrimidin-2-yl]-3-(2-methyl-6-morpholin-4-ylpyridin-4-yl)oxybenzonitrile]
The IC50 of the first is higher: over 1 µM for the first, under 0.01 µM for the second.

`CN(CC(F)F)c1cc(Oc2cc(C#N)ccc2-c2ncc(CN)cn2)n(C)n1` [compound 873, 4-[5-(aminomethyl)pyrimidin-2-yl]-3-[5-[2,2-difluoroethyl(methyl)amino]-2-methylpyrazol-3-yl]oxybenzonitrile] and `CCN(CC(F)F)c1cc(Oc2cc(C#N)ccc2-c2ncc(CN)cn2)n(C)n1` [compound 874, 4-[5-(aminomethyl)pyrimidin-2-yl]-3-[5-[2,2-difluoroethyl(ethyl)amino]-2-methylpyrazol-3-yl]oxybenzonitrile] cannot be ordered by IC50: under 0.01 µM for the first, under 0.01 µM for the second.

`Cc1cc(Oc2cc(C#N)ccc2-c2ncc([C@@H](F)CN)cn2)cc(N2CCOCC2)n1` [compound 876, 4-[5-[(1R)-2-amino-1-fluoroethyl]pyrimidin-2-yl]-3-(2-methyl-6-morpholin-4-ylpyridin-4-yl)oxybenzonitrile] and `Cc1nc(Oc2cc(C#N)ccc2-c2ncc([C@@H](F)CN)cn2)cc(N2CCOCC2)n1` [compound 878, 4-[5-[(1R)-2-amino-1-fluoroethyl]pyrimidin-2-yl]-3-(2-methyl-6-morpholin-4-ylpyrimidin-4-yl)oxybenzonitrile] cannot be ordered by IC50: under 0.01 µM for the first, under 0.01 µM for the second.

`Cc1nc(Oc2cc(C#N)ccc2-c2ncc(CCN)cn2)cc(N(C)C2COC2)n1` [compound 879, 4-[5-(2-aminoethyl)pyrimidm-2-yl]-3-[2-methyl-6-[methyl(oxetan-3-yl)amino]pyrimidin-4-yl]oxybenzonitrile] and `Cc1nc(Oc2cc(C#N)ccc2-c2ncc(CCN)cn2)cc(OC2COC2)n1` [compound 886, 4-[5-(2-aminoethyl)pyrimidin-2-yl]-3-[2-methyl-6-(oxetan-3-yloxy)pyrimidin-4-yl]oxybenzonitrile] cannot be ordered by IC50: over 1 µM for the first, over 1 µM for the second.

First: Cc1nc(Oc2cc(C#N)ccc2-c2ncc(CCN)cn2)cc(N2CCCC2=O)n1 [compound 880, 4-[5-(2-aminoethyl)pyrimidin-2-yl]-3-[2-methyl-6-(2-oxopyrrolidin-1-yl)pyrimidin-4-yl]oxybenzonitrile]
Second: Cc1nc(Oc2cc(C#N)ccc2-c2ncc(CN)cn2)cc(N2CCC2=O)n1 [compound 882, 4-[5-(aminomethyl)pyrimidin-2-yl]-3-[2-methyl-6-(2-oxoazetidin-1-yl)pyrimidin-4-yl]oxybenzonitrile]
The IC50 of the first is lower: 0.01 to 1 µM for the first, over 1 µM for the second.

Compared with `Cc1nc(Oc2cc(C#N)ccc2-c2ncc(CCN)cn2)cc(N2C=NCCC2)n1` [compound 881, 4-[5-(2-aminoethyl)pyrimidin-2-yl]-3-[6-(5,6-dihydro-4H-pyrimidin-1-yl)-2-methylpyrimidin-4-yl]oxybenzonitrile], `Cc1nc(Oc2cc(C#N)ccc2-c2ncc(CCN)cn2)cc(OC2CCC2)n1` [compound 887, 4-[5-(2-aminoethyl)pyrimidin-2-yl]-3-(6-cyclobutyloxy-2-methylpyrimidin-4-yl)oxybenzonitrile] is lower in IC50: over 1 µM for the first, 0.01 to 1 µM for the second.

`Cc1nc(OCC2CC2(F)F)cc(Oc2cc(C#N)ccc2-c2ncc(CCN)cn2)n1` (stereo not drawn) [compound 883, 4-[5-(2-aminoethyl)pyrimidin-2-yl]-3-[6-[(2,2-difluorocyclopropyl)methoxy]-2-methylpyrimidin-4-yl]oxybenzonitrile] and `Cc1nc(OCC(F)F)cc(Oc2cc(C#N)ccc2-c2ncc(CCN)cn2)n1` [compound 891, 4-[5-(2-aminoethyl)pyrimidin-2-yl]-3-[6-(2,2-difluoroethoxy)-2-methylpyrimidin-4-yl]oxybenzonitrile] fall in the same range of IC50: 0.01 to 1 µM for the first, 0.01 to 1 µM for the second.

First: Cc1nc(OCC(F)(F)F)cc(Oc2cc(C#N)ccc2-c2ncc(CCN)cn2)n1 [compound 884, 4-[5-(2-aminoethyl)pyrimidin-2-yl]-3-[2-methyl-6-(2,2,2-trifluoroethoxy)pyrimidin-4-yl]oxybenzonitrile]
Second: Cc1nc(OCC(F)(F)F)cc(Oc2cc(C#N)ccc2-c2ncc(CN)cn2)n1 [compound 893, 4-[5-(aminomethyl)pyrimidin-2-yl]-3-[2-methyl-6-(2,2,2-trifluoroethoxy)pyrimidin-4-yl]oxybenzonitrile]
The IC50 of the first is lower: 0.01 to 1 µM for the first, over 1 µM for the second.

`Cc1nc(OCC2(C)COC2)cc(Oc2cc(C#N)ccc2-c2ncc(CCN)cn2)n1` [compound 885, 4-[5-(2-aminoethyl)pyrimidin-2-yl]-3-[2-methyl-6-[(3-methyloxetan-3-yl)methoxy]pyrimidin-4-yl]oxybenzonitrile] and `Cc1nc(OCC2(C)COC2)cc(Oc2cc(C#N)ccc2-c2ncc(CN)cn2)n1` [compound 894, 4-[5-(aminomethyl)pyrimidin-2-yl]-3-[2-methyl-6-[(3-methyloxetan-3-yl)methoxy]pyrimidin-4-yl]oxybenzonitrile] cannot be ordered by IC50: over 1 µM for the first, over 1 µM for the second.

First: Cc1nc(Oc2cc(C#N)ccc2-c2ncc(CCN)cn2)cc(O[C@H]2CCOC2)n1 [compound 888, 4-[5-(2-aminoethyl)pyrimidin-2-yl]-3-[2-methyl-6-[(3S)-oxolan-3-yl]oxypyrimidin-4-yl]oxybenzonitrile]
Second: Cc1nc(Oc2cc(C#N)ccc2-c2ncc(CCN)cn2)cc(O[C@@H]2CCOC2)n1 [compound 889, 4-[5-(2-aminoethyl)pyrimidin-2-yl]-3-[2-methyl-6-[(3R)-oxolan-3-yl]oxypyrimidin-4-yl]oxybenzonitrile]
The IC50 of the first is lower: 0.01 to 1 µM for the first, over 1 µM for the second.

`COCCOc1cc(Oc2cc(C#N)ccc2-c2ncc(CCN)cn2)nc(C)n1` [compound 890, 4-[5-(2-aminoethyl)pyrimidin-2-yl]-3-[6-(2-methoxyethoxy)-2-methylpyrimidin-4-yl]oxybenzonitrile] and `Cc1nc(Oc2cc(C#N)ccc2-c2ncc(CCN)cn2)cc(OC2CC2)n1` [compound 892, 4-[5-(2-aminoethyl)pyrimidin-2-yl]-3-(6-cyclopropyloxy-2-methylpyrimidin-4-yl)oxybenzonitrile] fall in the same range of IC50: 0.01 to 1 µM for the first, 0.01 to 1 µM for the second.
